Among the data in PubChem BioAssay (NCI) are TGI and GI50 values, retold here.

Molecules are shown by their SMILES.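 Growth conditions: 96-well plates. Treatment: test compound, 48 hours, 5 concentrations. Analysis: linear interpolation between bracketing concentrations; unreached endpoints set to highest concentration. GI50 marks 50% less growth. At the TGI there is no net growth.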

What all share (assay): NCI-60 cell line screen, 48 h
Test [1] relates to COLO 205 colon.
Test [2] concerns EKVX NSCLC.
Test [3] deals with HOP-62 NSCLC.
The subject of test [4] is HS 578T breast.
In test [5] the test system is LOX IMVI melanoma.
The test system of test [6] is PC-3 prostate.
Test [7] concerns SK-MEL-28 melanoma.
Test [8] concerns TK-10 renal.
In test [9] the test system is 786-0 renal.
For test [10], the system named is OVCAR-8 ovarian.

As to `c1ccc(Sc2nc(Sc3ccccc3)nc(Sc3ccccc3)n2)cc1`, the TGI in [1] is 38.7 µM; in test [2], greater than 100 µM; in [3], greater than 100 µM; in [4], 75.4 µM; in test [5] it was greater than 100 µM; in [6], greater than 100 µM. For the same compound, the TGI in [7] and in test [8] was greater than 100 µM in each case.

On to `CC(C)(CO)NC(=O)c1cccs1`, for which the TGI in [9], in test [1], in test [2], in test [3], in [5] and in test [10] was greater than 100 µM throughout. In addition, the TGI in test [6], in test [7] and in test [8] was greater than 100 µM each time.

On to `COc1ccc(N2C(=O)C3C=CC(n4[nH]c(=O)n(Cc5ccccc5)c4=O)CC3C2=O)cc1` (stereo unspecified), for which the TGI in test [9], in [1], in [2], in test [3], in [5] and in [10] was greater than 100 µM throughout. The TGI in [7] and in test [8] was greater than 100 µM in each case.

Regarding `COC1=CC(c2ccc[nH]2)=N/C1=C\c1[nH]c(C)c(C)c1CCC(=O)OCc1ccccc1`, the GI50 was 0.257 µM in test [1]; 0.281 µM in test [2]; 0.355 µM in test [3]; 0.289 µM in test [4]; 0.217 µM in test [5]; 0.366 µM in test [10]. Also, the values for the GI50 in test [6] and in [8] were 0.277 µM and 0.39 µM, respectively. In addition, the TGI in test [1] stood at 1.15 µM; in test [2], 1.9 µM; in test [3], 1.84 µM; in test [4], 1.68 µM; in test [5], 0.705 µM; in test [10], 1.44 µM. For the same compound, the TGI in [6] stood at 5.87 µM; in [8], 3.09 µM.

In the case of `COc1ccc(/C=C(\C2=NC(=O)CS2)c2nc3ccccc3[nH]2)cc1`, the TGI in test [1], in [2], in [3], in [10], in test [7] and in [8] was greater than 100 µM each time.

For the compound `CCOC(=O)C1=C(O)c2ccc(OC)cc2C(=O)C1=O`, the TGI in test [9], in test [1], in [2], in [3], in test [5] and in test [10] was greater than 100 µM throughout. Moreover, the TGI in [7] and in [8] was greater than 100 µM in each case.

Turning to `COc1cc(C(=O)N(C(=O)N2CCCCC2)c2ccccc2)cc(OC)c1OC`, the TGI in test [9], in test [1], in test [2], in test [3], in [5] and in test [10] was greater than 100 µM throughout. The TGI in test [6] and in test [7] was greater than 100 µM in each case.

As for `COC(=O)C1CCCN1C(=O)OC(C)(C)C` (stereo unspecified), the TGI in test [9], in test [1], in test [2], in test [3], in test [5] and in [6] was greater than 100 µM in each case. For the same compound, the TGI in test [7] and in [8] was greater than 100 µM in each case.

Turning to `N#CCN1CCCN(CC#N)CCN(CC#N)CCCN(CC#N)CC1`, the TGI in test [9] was greater than 100 µM; in test [1] it was greater than 100 µM; in test [3], greater than 100 µM; in [4] it was greater than 100 µM; in test [5], 65.8 µM; in test [10], greater than 100 µM. For the same compound, the TGI in test [6], in [7] and in [8] was greater than 100 µM throughout.

For `CN(C)C1(c2cc3ccccc3s2)CCCCC1`, the TGI was 49.8 µM in [9]; greater than 100 µM in test [1]; greater than 100 µM in test [2]; greater than 100 µM in [3]; 60.9 µM in test [5]; greater than 100 µM in [10]. In addition, the TGI in test [6] and in [8] was greater than 100 µM each time.

`COc1cccc2c1C(=O)c1c(O)c3c(c(O)c1C2=O)CC(O)(C(C)=O)CC3O` (stereo unspecified): the TGI turned out to be 24.7 µM in test [1]; 20.6 µM in test [2]; 11.3 µM in [3]; 8.7 µM in test [5]; 10.6 µM in [10]; 44.3 µM in test [7].

As to `O=P(Nc1cccc(Cl)c1)(Oc1ccccc1)N(CCCl)CCCl` (stereo unspecified), the TGI was 29.3 µM in test [1]; 33.9 µM in test [2]; 31.1 µM in [3]; 37.9 µM in [10]; 30.5 µM in [7]; 30.6 µM in [8].

Regarding `O=C1C(Cl)C(c2ccc([N+](=O)[O-])cc2)N1n1cnc2ccccc2c1=O` (stereo unspecified), the TGI in [9] is greater than 100 µM; in [1] it was greater than 100 µM; in test [2] it was 85.6 µM; in [3], greater than 100 µM; in test [5] it was greater than 100 µM; in test [10], greater than 100 µM. Further, the TGI in test [7] was greater than 100 µM; in test [8] it was 83.2 µM.

For the compound `COc1ccc(OC)c(-c2cc(=O)c3cc4c(cc3[nH]2)OCO4)c1`, the TGI in test [9] was greater than 100 µM; in test [1] it was 7.93 µM; in test [2] it was greater than 100 µM; in test [3], 67.7 µM; in test [5], greater than 100 µM; in [10], greater than 68.5 µM. Moreover, the TGI is greater than 100 µM in test [7] and greater than 83.3 µM in test [8].

With `Nc1ccn(CCCC(c2ccccc2)P(=O)(O)O)c(=O)n1` (stereo unspecified), the TGI in test [9], in test [1], in test [3], in test [5], in [10] and in [7] was greater than 100 µM in each case. The compound further gave a TGI in [8] greater than 100 µM.

On to `CCOC(=O)C1=C(C)N(c2ccc(Cl)cc2)C2(O)C=CC(Nc3ccc(Cl)cc3)=C3C(=O)N(c4ccccc4)C(=O)C312` (stereo unspecified), for which the TGI in [1] was 7.2 µM; in test [3], 14.9 µM; in test [4] it was greater than 100 µM; in test [5], 4.36 µM; in [10] it was 18.1 µM; in test [6], 22.8 µM. The figures for the TGI in test [7] and in test [8] were 6.89 µM and 52.1 µM, respectively.
